In US5242945A, “Tetronic and thiotetronic acid derivatives as phospholipase A2 inhibitors” (American Home Products Corporation, priority 1991, dated 1993):
Like-named read-outs stand apart in the source and are kept apart here.

Experiments:
[1] = tested on: lipoxygenase (LTB4 or 5HETE synthesis); experiment: inhibition of LTB4 and 5-HETE synthesis by rat glycogen-elicited polymorphonuclear leukocytes; format: cell-based, rat (female Wistar); settings: Leukocyte, rat PMN; for inhibition at 10 µM: + with * denotes potentiation
Description: This is especially true with respect to 5,12-diHETE, which is also denoted as LTB4 [see Ford-Hitchinson, J. Roy. Soc. Med., 74, 831 (1981)]. Compounds which inhibit the PLA2 -mediated release of arachidonic acid thereby effectively prevent the oxidation of arachidonic acid to the various leukotriene products via the lipoxygenase cascade. Accordingly, the specificity of action of PLA2 inhibitors can be determined by the activity of test compounds in this assay, which measures the ability of compounds to inhibit the synthesis of LTB4 and 5-HETE by rat glycogen-elicited polymorphonuclear leukocytes (PMN) in the presence of exogenous substrate.
(§1) Rat polymorphonuclear leukocytes (PMNs) are obtained from female Wistar rats (150-200 g) which receive an injection of 6% glycogen (10 ml i.p.). Rats are sacrificed 18-24 hours post injection by CO2 asphyxiation and the elicited cells are harvested by peritoneal lavage using physiological saline (0.9% NaCl). The exudate is centrifuged at 400 xg for 10 minutes. The supernatant fluid is discarded and the cell pellet is resuspended to a concentration of 2.0×10^7 cells/mL in HBSS containing Ca^++ and Mg^++ and 10 μM L-cysteine.
(§2) To 1 mL aliquots of cell suspension, test drugs or vehicle are added, then preincubated at 37° C. for 10 minutes. A23187 (1 μM), [^3 H]-AA (3.0 μCi/mL) and unlabeled AA (1 μM) are then added and the samples are further incubated for 10 minutes. The reaction is terminated by centrifugation and pelleting cells. Supernatants are then analyzed by HPLC analysis on a 15 cm×4.6 mm ID supelcosil LC-18 (Supelco)(3M) column, using a two solvent system at a flow rate of 1.4 mL total flow as follows:
Injections: 140 μL of each supernatant is injected directly onto column and ^3 H arachidonic acid metabolites are monitored using an on-line radioactivity detector (Ramona, IN/US, Fairfield, N.J.).
Co-chromatography with standard [^3 H] leukotriene B4 (LTB4) in medium of stimulated PMN exposed to drug is compared to that found in medium of stimulated cells exposed to no drug, generating percent inhibition.
Results are expressed as percent inhibition at a given compound dose or as an IC50 value.

[2] = tested on: cyclooxygenase (PGE2 or TxB2 synthesis); experiment: inhibition of synthesis of cyclooxygenase products PGE2 and TxB2 by rat polymorphonuclear leukocytes; format: cell-based, rat (female Wistar); settings: Leukocyte, rat PMN; for inhibition at 10 µM: + with * denotes potentiation
Procedure: as §1, §2
In this assay, the procedure of Example 58 is carried out as described. However, in order to determine cyclooxygenase activity, the samples are co-chromatographed with authentic reference [^3 H]-TxB2 or [^3 H]-PGE2.
The results are calculated as in Example 58 and presented below: […]

[3] = tested on: purified PLA2, from the diamond back cotton mouth snake (A. piscivorus piscivorus); experiment: in vivo PLA2 murine paw edema assay; design: species or system A. piscivorus piscivorus PLA2 in CD-1 mice
Procedure: The ability of the compounds of the invention to inhibit paw edema induced by the exogenous administration of PLA2 is measured in the in vivo PLA2 murine paw edema assay.
Non-fasted, male CD-1 mice (8 weeks old; 31-36 grams) are placed in plastic boxes in groups of six. The right hind paw volume is measured using mercury plethysmography (zero time). Compounds are dosed orally (0.5 mL of 0.5% Tween-80) 1 or 3 hours prior to PLA2 injection or intravenously (0.2 mL in 0.3% dimethylsulfoxide/saline) 3 minutes prior to PLA2 injection. A solution of purified PLA2, from the diamond back cotton mouth snake (A. piscivorus piscivorus) is prepared in saline at a concentration of 6 μg/mL. Fifty (50) μL (0.3 μg) of this PLA2 solution is injected subcutaneously into the right hind paw with a plastic 1 mL plastic syringe (27 gauge, 1" needle). Paw volume of the injected paw is measured again at 10 minutes, 30 minutes and 60 minutes after PLA2 injection. Animals are euthanized with CO2 at the completion of the study.
The paw edema is calculated by subtracting the zero time volume from the volume recorded at each time period. Mean paw edema for each treatment group is then calculated and expressed as (μL±S.E.). Drug effects are expressed as a percent change from control (vehicle) values. Statistical significance is determined by a one-way analysis of variance with LSD comparison to control (p<0.05). ED50 's are determined using […].

carrageenan paw edema = experiment: rat carrageenan paw edema assay; format: in vivo, rat (Sprague-Dawley)
Procedure: The compounds of the invention are further tested in the rat carrageenan paw edema assay to determine their ability to inhibit the acute inflammatory response.
140-180 g Male Sprague-Dawley rats, in groups of 6 animals are injected subcutaneously in the right paw with 0.1 mL of 1% carrageenan at zero time. Mercury plethysmographic readings (mL) of the paw are made at zero time and 3 hours later. Test compounds are suspended or dissolved in 0.5% methylcellulose and given perorally 1 hour prior to carrageenan administration.
The increase in paw volume (edema in mL) produced by the carrageenan is measured. Paw edema is calculated (3 hour volume minus zero time volume), and percent inhibition of edema is determined. Unpaired Student's t-test is used to determine statistical significance.

[4] = tested on: purified PLA2, from the diamond back cotton mouth snake (A. piscivorus piscivorus); experiment: in vivo PLA2 murine paw edema assay; design: species or system A. piscivorus piscivorus PLA2 in CD-1 mice; remark: listed apart in the source

| SMILES | % Change in Edema 10 min ([3]; 10 mg/kg i.v.) | % Change in Edema 30 min ([3]; 10 mg/kg i.v.) | % Change in Edema 60 min ([3]; 10 mg/kg i.v.) | % Change in Edema 10 min ([3]; 100 mg/kg p.o.) | % Change in Edema 30 min ([3]; 100 mg/kg p.o.) | % Change in Edema 60 min ([3]; 100 mg/kg p.o.) | inhibition at 10 µM ([1]; read-out: % Inhibition LTB4) | inhibition at 10 µM ([2]; read-out: % Inhibition TxB2) | further results |
| --- | --- | --- | --- | --- | --- | --- | --- | --- | --- |
| CCCCCCCCCC(=O)C1=C(O)COC1=O [Example 1, 4-Hydroxy-3-(1-oxodecyl)-2(5H)-furanone] | -51% | -43% | -23% | -36% | -29% | -29% | – | – | inhibition at 50 µM ([1]; at 50 μM): 60%; inhibition at 50 µM ([2]; at 50 μM): 71%; % Inhibition (carrageenan paw edema; 50 mg/kg peroral): 40% |
| CCCCCCCC/C=C\CCCCCCCC(=O)C1=C(O)COC1=O [Example 9, (Z)-4-Hydroxy-3-(1-oxo-9-octadecenyl)-2(5H)-furanone] | -48% | -42% | -48% | -1% | +1.5% | +7.1% | 1% | 31% | % Inhibition (carrageenan paw edema; 100 mg/kg peroral (dose column)): 41% |
| CCCC/C=C\CCCCCCCC(=O)C1=C(O)COC1=O [Example 25, 4-Hydroxy-3-((Z)-1-oxo-9-tetradecenyl)-2(5H)-furanone] | – | – | – | – | – | – | 8% | 8% | inhibition at 10 µM ([1]; read-out: % Inhibition 5-HETE): 81%; inhibition at 10 µM ([2]; read-out: % Inhibition PGE2): 68%; % Change in Edema 10 min ([4]; 1 mg/kg i.p.): -50%; % Change in Edema 30 min ([4]; 1 mg/kg i.p.): -65%; % Change in Edema 60 min ([4]; 1 mg/kg i.p.): -1%; % Change in Edema 10 min ([4]; 10 mg/kg i.p.): -38%; % Change in Edema 30 min ([4]; 10 mg/kg i.p.): -44%; % Change in Edema 60 min ([4]; 10 mg/kg i.p.): -18%; % Change in Edema 10 min ([4]; 200 mg/kg p.o.): -40%; % Change in Edema 30 min ([4]; 200 mg/kg p.o.): -33%; % Change in Edema 60 min ([4]; 200 mg/kg p.o.): -43% |
